Patent US9624239B2, “Protein kinase inhibitors” (Pharmascience Inc., priority 2011, dated 2017)

Tests used:
[1] = target: T1, histidine tagged recombinant human full-length Bruton Agammaglobulinemia Tyrosine Kinase (Btk) (Homo sapiens, UniProt Q06187); assay: Btk kinase inhibition assay (fluorescence polarization, KinEASE FP Fluorescein Green); assay type: biochemical; settings: 10 μM ATP, 250 μM substrate, 60 minutes, room temperature; Ki from IC50 by Cheng-Prusoff; read-out: ki50 (nM), Inhibition of Btk
T1 construct: recombinant human full-length Bruton Agammaglobulinemia Tyrosine Kinase (Btk); histidine tag
T1 sequence (Q06187 whole entry): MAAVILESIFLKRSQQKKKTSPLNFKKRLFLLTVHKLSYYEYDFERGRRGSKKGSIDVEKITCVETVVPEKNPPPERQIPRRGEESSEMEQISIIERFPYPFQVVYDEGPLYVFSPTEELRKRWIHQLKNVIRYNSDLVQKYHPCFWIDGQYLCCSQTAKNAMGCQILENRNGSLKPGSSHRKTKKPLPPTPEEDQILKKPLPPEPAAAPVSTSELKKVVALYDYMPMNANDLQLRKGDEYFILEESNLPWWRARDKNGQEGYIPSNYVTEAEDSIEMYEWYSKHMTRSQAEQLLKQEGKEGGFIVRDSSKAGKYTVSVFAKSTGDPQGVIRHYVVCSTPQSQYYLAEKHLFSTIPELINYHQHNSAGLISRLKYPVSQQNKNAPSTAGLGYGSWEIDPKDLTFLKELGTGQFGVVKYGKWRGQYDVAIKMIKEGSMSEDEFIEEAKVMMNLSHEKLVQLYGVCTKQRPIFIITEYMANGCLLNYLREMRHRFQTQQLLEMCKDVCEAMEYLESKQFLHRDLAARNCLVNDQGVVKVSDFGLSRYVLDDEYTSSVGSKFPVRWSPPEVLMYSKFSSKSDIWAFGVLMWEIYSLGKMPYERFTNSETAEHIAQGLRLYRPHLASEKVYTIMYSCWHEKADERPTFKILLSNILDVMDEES
Experimental: Kinase Binding Btk and Lck Kinase Inhibition Assay
Fluorescence polarization-based kinase assays were performed in 384 well-plate format using histidine tagged recombinant human full-length Bruton Agammaglobulinemia Tyrosine Kinase (Btk) or histidine tagged recombinant Human Lymphocyte-Specific Protein Tyrosine Kinase (Lck) and a modified protocol of the KinEASE™ FP Fluorescein Green Assay supplied from Millipore. Kinase reaction were performed at room temperature for 60 minutes in presence of 250 μM substrate, 10 μM ATP and variable test article concentrations. The reaction was stopped with EDTA/kinease detection reagents and the polarization measured on a Tecan 500 instrument. From the dose-response curve obtained, the IC50 was calculated using Graph Pad Prisms® using a non-linear fit curve. The Km for ATP on each enzyme was experimentally determined and the Ki values calculated using the Cheng-Prusoff equation (see: Cheng Y, Prusoff W H. (1973) Relationship between the inhibition constant (K1) and the concentration of inhibitor which causes 50 percent inhibition (I50) of an enzymatic reaction”. Biochem Pharmacol 22 (23): 3099-108).
ki values are reported in Tables 2 and 3: • a—Less than 100 nM; b—less than 1000 nM; c—more than 1000 nM

mouse splenocytes = assay: Splenic cell proliferation assay (anti-IgM stimulated B cell proliferation, Cell Titer-Glo); assay type: cell-based; settings: Splenocyte; CD1 mouse splenocytes, 1 h pre-treatment, 2.5 ug/ml anti-IgM F(ab')2 for 72 h; read-out: EC50 (nM), Inhibition of splenic cell proliferation
Experimental: Splenic Cell Proliferation Assay
Splenocytes were obtained from 6 week old male CD1 mice (Charles River Laboratories Inc.). Mouse spleens were manually disrupted in PBS and filtered using a 70 μm cell strainer followed by ammonium chloride red blood cell lysis. Cells were washed, resuspended in Splenocyte Medium (HyClone RPMI supplemented with 10% heat-inactivated FBS, 0.5× non-essential amino acids, 10 mM HEPES, 50 uM beta mercaptoethanol) and incubated at 37° C., 5% CO2 for 2 h to remove adherent cells. Suspension cells were seeded in 96 well plates at 50,000 cells per well and incubated at 37° C., 5% CO2 for 1 h. Splenocytes were pre-treated in triplicate with 10,000 nM curves of Formula 1 compounds for 1 h, followed by stimulation of B cell proliferation with 2.5 ug/ml anti-IgM F(ab′)2 (Jackson ImmunoResearch) for 72 h. Cell proliferation was measured by Cell Titer-Glo Luminescent Assay (Promega). EC50 values (50% proliferation in the presence of compound as compared to vehicle treated controls) were calculated from dose response compound curves using GraphPad Prism Software.
EC50 values are reported in Table 4: • a—Less than 100 nM; b—less than 1000 nM; c—more than 1000 nM

| Compound | Ki [1] [nM] | EC50 (mouse splenocytes) [nM] |
| --- | --- | --- |
| CC1OCc2c1c1ncnc(N)c1n2-c1ccc(Oc2cccc(OCc3cccc(C(F)(F)F)c3)c2)cc1 (stereo not drawn) [Compound 105] | < 100 | 100 to 1000 |
| CC1OCc2c1c1ncnc(N)c1n2-c1ccc(Oc2cccc(OCc3ccccn3)c2)cc1 (stereo not drawn) [Compound 75] | < 100 | > 1000 |
| Cc1nc(-c2cccc(Oc3ccc(-n4c5c(c6ncnc(N)c64)CCC5)cc3)c2)cs1 [Compound 117] | < 100 | 100 to 1000 |
| CC1OCc2c1c1ncnc(N)c1n2-c1ccc(Oc2cccc(N3CCOCC3)c2)cc1 (stereo not drawn) [Compound 91] | < 1000 |  |
| CC1OCc2c1c1ncnc(N)c1n2-c1ccc(Oc2cccc(OCc3cccc(N)c3)c2)cc1 (stereo not drawn) [Compound 116] | < 100 | 100 to 1000 |
| CC1OCc2c1c1ncnc(N)c1n2-c1ccc(Oc2cccc(OCc3ccccc3Cl)c2)cc1 (stereo not drawn) [Compound 107] | < 100 | < 100 |
| CC1OCc2c1c1ncnc(N)c1n2-c1ccc(Oc2cccc(OCc3cccc(C(N)=O)c3)c2)cc1 (stereo not drawn) [Compound 92] | < 100 | 100 to 1000 |
| COc1cccc(C(=O)Nc2cccc(Oc3ccc(-n4c5c(c6ncnc(N)c64)C(C)OC5)cc3)c2)c1 (stereo not drawn) [Compound 118] | < 100 | 100 to 1000 |
| COc1ccccc1COc1cccc(Oc2ccc(-n3c4c(c5ncnc(N)c53)C(C)OC4)cc2)c1 (stereo not drawn) [Compound 108] | < 100 | 100 to 1000 |
| CCCCOc1cccc(Oc2ccc(-n3c4c(c5ncnc(N)c53)C(C)OC4)cc2)c1 (stereo not drawn) [Compound 136] | < 100 | 100 to 1000 |
| CC1OCc2c1c1ncnc(N)c1n2-c1ccc(Oc2cccc(OCC3CCCC3)c2)cc1 (stereo not drawn) [Compound 140] | < 1000 | 100 to 1000 |
| CC1OCc2c1c1ncnc(N)c1n2-c1ccc(Oc2cccc(N(C)C)c2)cc1 (stereo not drawn) [Compound 70] | < 1000 | 100 to 1000 |
| CC1OCc2c1c1ncnc(N)c1n2-c1ccc(Oc2cccc(OCC3CC3)c2)cc1 (stereo not drawn) [Compound 138] | < 100 | 100 to 1000 |
| CC1OCc2c1c1ncnc(N)c1n2-c1ccc(Oc2cccc(OCCN3CCCC3)c2)cc1 (stereo not drawn) [Compound 52] | > 1000 |  |
| COc1ccc(C(=O)Nc2cccc(Oc3ccc(-n4c5c(c6ncnc(N)c64)C(C)OC5)cc3)c2)cc1 (stereo not drawn) [Compound 110] | < 1000 | > 1000 |
| CC(=O)Nc1ccc(COc2cccc(Oc3ccc(-n4c5c(c6ncnc(N)c64)C(C)OC5)cc3)c2)cc1 (stereo not drawn) [Compound 109] | < 1000 |  |
| CC(C)COc1cccc(Oc2ccc(-n3c4c(c5ncnc(N)c53)C(C)OC4)cc2)c1 (stereo not drawn) [Compound 135] | < 100 | 100 to 1000 |
| Cc1nc(-c2cccc(Oc3ccc(-n4c5c(c6ncnc(N)c64)C(C)OC5)cc3)c2)cs1 (stereo not drawn) [Compound 90] | < 100 | 100 to 1000 |

| Compound | Ki [1] [nM] | EC50 (mouse splenocytes) [nM] |
| --- | --- | --- |
| CC1OCc2c1c1ncnc(N)c1n2-c1ccc(Oc2cccc(N)c2)cc1 (stereo not drawn) [Compound 47] | < 1000 |  |
| CC(=O)Nc1cccc(COc2cccc(Oc3ccc(-n4c5c(c6ncnc(N)c64)C(C)OC5)cc3)c2)c1 (stereo not drawn) [Compound 106] | < 100 | 100 to 1000 |
| CC1OCc2c1c1ncnc(N)c1n2-c1ccc(Oc2cccc(COc3ccccc3C#N)c2)cc1 (stereo not drawn) [Compound 134] | < 100 | < 100 |
| COCC(=O)Nc1cccc(COc2cccc(Oc3ccc(-n4c5c(c6ncnc(N)c64)C(C)OC5)cc3)c2)c1 (stereo not drawn) [Compound 132] | < 100 | 100 to 1000 |
| CC1OCc2c1c1ncnc(N)c1n2-c1ccc(Oc2cccc(OCc3cccc(NC(=O)C4CC4)c3)c2)cc1 (stereo not drawn) [Compound 133] | < 100 | < 100 |
| CC1OCc2c1c1ncnc(N)c1n2-c1ccc(Oc2cccc(NC(=O)c3ccc(Cl)cc3)c2)cc1 (stereo not drawn) [Compound 120] | < 100 | 100 to 1000 |
| CC1OCc2c1c1ncnc(N)c1n2-c1ccc(Oc2cccc(OCCN3CCOCC3)c2)cc1 (stereo not drawn) [Compound 51] | > 1000 |  |
| CC1OCc2c1c1ncnc(N)c1n2-c1ccc(Oc2cccc(NC(=O)c3ccc(F)cc3)c2)cc1 (stereo not drawn) [Compound 112] | < 100 | 100 to 1000 |
| CCCC(=O)Nc1cccc(Oc2ccc(-n3c4c(c5ncnc(N)c53)C(C)OC4)cc2)c1 (stereo not drawn) [Compound 126] | < 1000 | 100 to 1000 |
| COc1cccc(OCc2cccc(Oc3ccc(-n4c5c(c6ncnc(N)c64)C(C)OC5)cc3)c2)c1 (stereo not drawn) [Compound 137] | < 100 | 100 to 1000 |
| CC(C)C(=O)Nc1cccc(Oc2ccc(-n3c4c(c5ncnc(N)c53)C(C)OC4)cc2)c1 (stereo not drawn) [Compound 111] | < 1000 | > 1000 |
| Cc1ccc(Oc2ccc(-n3c4c(c5ncnc(N)c53)C(C)OC4)cc2)cc1 (stereo not drawn) [Compound 79] | < 1000 | > 1000 |
| CC1OCc2c1c1ncnc(N)c1n2-c1ccc(Oc2cccc(OCc3ccc(C(N)=O)cc3)c2)cc1 (stereo not drawn) [Compound 98] | < 100 |  |
| CC1OCc2c1c1ncnc(N)c1n2-c1ccc(Oc2cccc(OCCN(C)C)c2)cc1 (stereo not drawn) [Compound 48] | > 1000 |  |
| CC1OCc2c1c1ncnc(N)c1n2-c1ccc(Oc2cccc(OCc3cncn3C)c2)cc1 (stereo not drawn) [Compound 93] | < 100 |  |
| CC(=O)Nc1cccc(Oc2ccc(-n3c4c(c5ncnc(N)c53)C(C)OC4)cc2)c1 (stereo not drawn) [Compound 55] | < 1000 |  |
| CC1OCc2c1c1ncnc(N)c1n2-c1ccc(Oc2ccccc2)nc1 (stereo not drawn) [Compound 88] | > 1000 |  |

Further lines, with some results ahead:

| Ki [1] [nM] | Compound | EC50 (mouse splenocytes) [nM] |
| --- | --- | --- |
| < 100 | Nc1ncnc2c3c(n(-c4ccc(Oc5cccc(OCc6ccc(Cl)cc6)c5)cc4)c12)CCC3 [Compound 128] | 100 to 1000 |
| > 1000 | NCC(=O)N1Cc2c(n(-c3ccc(Oc4ccccc4)cc3)c3c(N)ncnc23)C1 [Compound 19] |  |
| < 100 | CC1OCc2c1c1ncnc(N)c1n2-c1ccc(Oc2cccc(NC(=O)c3ccccc3F)c2)cc1 (stereo not drawn) [Compound 125] | 100 to 1000 |
| < 100 | COc1ccccc1C(=O)Nc1cccc(Oc2ccc(-n3c4c(c5ncnc(N)c53)C(C)OC4)cc2)c1 (stereo not drawn) [Compound 127] | 100 to 1000 |
| < 100 | CC1OCc2c1c1ncnc(N)c1n2-c1ccc(Oc2cccc(OCCc3ccccc3)c2)cc1 (stereo not drawn) [Compound 77] | 100 to 1000 |
| < 100 | CC1OCc2c1c1ncnc(N)c1n2-c1ccc(Oc2cccc(NC(=O)c3cccc(F)c3)c2)cc1 (stereo not drawn) [Compound 121] | 100 to 1000 |
| > 1000 | Nc1ncnc2c3c(n(-c4ccc(Oc5ccccc5)cc4)c12)CCN(C(=O)OCc1ccccc1)C3 [Compound 6] |  |
| < 100 | Nc1ncnc2c3c(n(-c4ccc(Oc5cccc(OCc6cccnc6)c5)cc4)c12)CCC3 [Compound 62] | 100 to 1000 |
| < 100 | N#Cc1ccccc1COc1cccc(Oc2ccc(-n3c4c(c5ncnc(N)c53)COC4)cc2)c1 [Compound 143] | 100 to 1000 |
| < 100 | CC1OCc2c1c1ncnc(N)c1n2-c1ccc(Oc2cccc(NC(=O)c3ccccc3)c2)cc1 (stereo not drawn) [Compound 82] | > 1000 |
| < 100 | N#Cc1ccccc1OCc1cccc(Oc2ccc(-n3c4c(c5ncnc(N)c53)CCC4)cc2)c1 [Compound 144] | 100 to 1000 |
| < 100 | CC1OCc2c1c1ncnc(N)c1n2-c1ccc(Oc2cccc(CCOc3ccccc3)c2)cc1 (stereo not drawn) [Compound 115] | 100 to 1000 |
| < 100 | CC1OCc2c1c1ncnc(N)c1n2-c1ccc(Oc2cccc(O[C@@H](C)c3ccccc3)c2)cc1 (stereo partly drawn) [Compound 86] | > 1000 |
| < 100 | N#Cc1ccccc1OCc1cccc(Oc2ccc(-n3c4c(c5ncnc(N)c53)COC4)cc2)c1 [Compound 142] | 100 to 1000 |
| < 1000 | CC1OCc2c1c1ncnc(N)c1n2-c1ccc(Oc2cccc(OCc3ccccc3C(N)=O)c2)cc1 (stereo not drawn) [Compound 101] |  |
| > 1000 | Nc1ncnc2c3c(n(-c4ccc(Oc5ccccc5)cc4)c12)CCN(C(=O)c1ccccc1)C3 [Compound 16] |  |
| > 1000 | Nc1ncnc2c3c(n(-c4ccc(Oc5ccccc5)cc4)c12)CCN(S(=O)(=O)c1ccccc1)C3 [Compound 12] |  |
| > 1000 | Nc1ncnc2c3c(n(-c4ccc(Oc5ccccc5)cc4)c12)CN(Cc1ccccc1)C3 [Compound 10] |  |
| > 1000 | Nc1ncnc2c3c(n(-c4ccc(Oc5ccccc5)cc4)c12)CCN(Cc1ccccc1)C3 [Compound 11] |  |
| > 1000 | NCC(=O)N1CCc2c(c3ncnc(N)c3n2-c2ccc(Oc3ccccc3)cc2)C1 [Compound 17] |  |
| > 1000 | Nc1ncnc2c3c(n(-c4ccc(Oc5ccccc5)cc4)c12)CN(C(=O)OCc1ccccc1)C3 [Compound 5] |  |
